Reference: article PMC11062894, “Protein-based bandpass filters for controlling cellular signaling with chemical inputs” (Nature Chemical Biology, 2023)
Values joined by “and” are separate entries in the source; they are usually repeats but may differ in a detail not shown here. Identical values can stand only once.

Assays:
[1] = biological target: GEMS with the dual-drug-controlled (A-1155463, venetoclax) switch (Bcl2 and BclXL–LD3) in HEK293T cells (Homo sapiens, UniProt P10415); test: GEMS SEAP reporter assay, dual-drug-controlled (A-1155463, venetoclax) switch; type: cell-based; conditions: for SEAP (U/L): Figure 2c, ON-phase
Excerpt: In the first step, we sought to construct a dual-drug-controlled switch to test whether the ON and OFF switching processes can be combined in our receptor architecture. We used Bcl2 and BclXL as the orthogonal drug receptors, which interact with the LD3 protein and respond to their own specific inhibitors. In such a setting, the dual-drug-controlled switch will turn ON in response to one drug and OFF in response to the other, thus mimicking bandpass filtering behavior (Supplementary Fig. 1d). […] To test the switch behavior, we employed the generalizable extracellular molecule sensor (GEMS) platform, which senses extracellular molecules and thus regulates cell surface signaling pathways (Fig. 2a). This receptor platform is based on a mutated EpoR extracellular and transmembrane domain fused to an IL-6RB intracellular domain. Dimerization of EpoR extracellular domains is controlled by N-terminally fused inducible dimerization domains, which drive IL-6RB activation and STAT3 signaling. The Bcl2 and BclXL–LD3 complexes were fused to the extracellular EpoR domains. […] The dimerization of Bcl2 and LD3 causes EpoR extracellular domain dimerization and triggers JAK/STAT3 signaling. Active STAT3 drives the expression of a reporter protein (secreted alkaline phosphatase (SEAP)) controlled by a STAT3-dependent promoter.
(§1) HEK293T cells were seeded in a 96-well plate 24 h before transfection. The transfection mix in each well consisted of 3 ng of constitutive human CMV promoter driven mammalian STAT3 expression vector (PhCMV-STAT3-pA), 30 ng of STAT3-induced reporter expression (OStat3-PhCMVmin-SEAP-pA) and 50 ng of expression vectors for each GEMS receptor chain (PSV40-IgK-(drughigh receptor)-EpoRm-IL-6RBm-pA and PSV40-IgK-(druglow receptor-GGGGSX3-LD3)-EpoRm-IL-6RBm-pA). For the specific drughigh receptor and druglow receptor used in the different cellular assays, they are indicated as wild type or with mutations. Then, plasmid DNA was mixed with 50 μl opti-MEM (Thermo Fisher) and 600 ng of polyethyleneimine (Polysciences, catalog no. 24765-1). For drug treatment experiments, drugs were added 12 h post-transfection and incubated with cells for 24 h before the SEAP reporter detection assay.
(§2) SEAP activity (U l^−1) in cell culture supernatants was quantified by kinetic measurements at 405 nm (1 minute per measurement for 30 cycles) of absorbance increase due to phosphatase-mediated hydrolysis of para-nitrophenyl phosphate (pNPP).
Binding affinities of SPR drug competition assays were calculated using three-parameter nonlinear regression in GraphPad Prism (v.8.3.0). Representative data of cell assays are presented as individual values and mean values (bars). n = 3 refers to biological replicates. All IC50 or EC50 values of cell assays reported were calculated using four-parameter nonlinear regression ± s.d. Bandpass features of cutoff concentrations and Bandwidth90% were estimated based on the curve fitted using bell-shaped curve nonlinear regression in GraphPad Prism (v.8.3.0).

[2] = biological target: GEMS with the dual-drug-controlled (venetoclax, A-1155463) switch (BclXL and Bcl2–LD3) in HEK293T cells (Homo sapiens, UniProt P10415); test: GEMS SEAP reporter assay, dual-drug-controlled (venetoclax, A-1155463) switch; type: cell-based; conditions: for SEAP (U/L): Figure 2f, OFF-phase
Description: as §1, §2
(§3) Binding affinities of SPR drug competition assays were calculated using three-parameter nonlinear regression in GraphPad Prism (v.8.3.0). Representative data of cell assays are presented as individual values and mean values (bars). n = 3 refers to biological replicates. All IC50 or EC50 values of cell assays reported were calculated using four-parameter nonlinear regression ± s.d. Bandpass features of cutoff concentrations and Bandwidth90% were estimated based on the curve fitted using bell-shaped curve nonlinear regression in GraphPad Prism (v.8.3.0). […]

BclXL–LD3 interaction = BclXL–LD3 interaction (Homo sapiens, UniProt Q07817); test: SPR drug competition assay, BclXL–LD3; type: binding; conditions: for Normalization of Response units / Response units: BclXL, Supp Fig 2a
Bcl2–LD3 interaction = Bcl2–LD3 interaction (Homo sapiens, UniProt P10415); test: SPR drug competition assay, Bcl2–LD3; type: binding; conditions: for Normalization of Response units / Response units: Bcl2, Supp Fig 2a
Description: Drug IC50 values for disrupting heterodimers were measured on a Biacore 8K device. A 5 µM portion of analyte was mixed with 10 µM of BclXL or Bcl2 inhibitors according to the analyte. The mixtures of analyte and drug were injected onto the LD3 immobilized channel.
as §3
This assay is designed to test if the drug of interest can specifically disrupt the
interaction between LD3 and BclXL/Bcl2. The drug-receptors (Bcl2, BclXL) are immobilized on the
different channels of the sensor chip, then the binding sites are saturated with LD3. […]

Bcl2 = conditions: cited from earlier work
[3] = Independent repeat, A-1155463 1 nM
[4] = Independent repeat, A-1155463 10 nM
[5] = Independent repeat, A-1155463 31.6 nM
[6] = Independent repeat, A-1155463 100 nM
[7] = Representative, A-1155463 10 nM
[8] = Representative, A-1155463 31.6 nM
[9] = Representative, A-1155463 100 nM
[10] = Representative, A-1155463 316 nM

Bcl2–LD3 interaction, sequence (P10415 1-207 limits assumed): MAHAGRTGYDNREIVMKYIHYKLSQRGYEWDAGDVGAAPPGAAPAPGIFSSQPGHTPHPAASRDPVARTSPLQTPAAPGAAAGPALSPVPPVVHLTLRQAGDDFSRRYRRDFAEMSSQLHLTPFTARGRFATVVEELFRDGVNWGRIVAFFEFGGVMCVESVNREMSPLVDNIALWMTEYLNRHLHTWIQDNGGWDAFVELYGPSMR
GEMS with the dual-drug-controlled (venetoclax, A-1155463) switch (BclXL and Bcl2–LD3) in HEK293T cells, sequence (P10415 whole entry): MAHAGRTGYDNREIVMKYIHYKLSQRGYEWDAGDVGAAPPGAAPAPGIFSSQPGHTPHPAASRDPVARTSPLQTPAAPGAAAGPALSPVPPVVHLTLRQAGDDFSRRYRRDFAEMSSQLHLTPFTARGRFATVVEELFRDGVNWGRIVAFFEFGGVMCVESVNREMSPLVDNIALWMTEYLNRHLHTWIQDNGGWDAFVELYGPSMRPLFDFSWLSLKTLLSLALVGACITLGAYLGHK
GEMS with the dual-drug-controlled (venetoclax, A-1155463) switch (BclXL and Bcl2–LD3) in HEK293T cells, sequence (Q07817 whole entry, further chain): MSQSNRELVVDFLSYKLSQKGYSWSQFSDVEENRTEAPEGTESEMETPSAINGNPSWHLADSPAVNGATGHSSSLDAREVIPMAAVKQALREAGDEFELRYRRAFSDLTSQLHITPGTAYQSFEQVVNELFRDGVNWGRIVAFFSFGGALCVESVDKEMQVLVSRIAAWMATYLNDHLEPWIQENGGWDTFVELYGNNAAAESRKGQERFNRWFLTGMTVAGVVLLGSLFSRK
BclXL–LD3 interaction, sequence (Q07817 1-209 limits assumed): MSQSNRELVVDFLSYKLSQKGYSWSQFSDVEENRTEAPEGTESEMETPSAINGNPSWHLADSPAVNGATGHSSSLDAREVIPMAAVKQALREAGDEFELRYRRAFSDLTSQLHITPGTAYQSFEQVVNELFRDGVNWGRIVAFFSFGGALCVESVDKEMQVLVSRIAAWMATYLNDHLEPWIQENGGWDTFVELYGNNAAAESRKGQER
GEMS with the dual-drug-controlled (A-1155463, venetoclax) switch (Bcl2 and BclXL–LD3) in HEK293T cells, sequence (Q07817 whole entry): as the sequence (Q07817 whole entry, further chain) above
GEMS with the dual-drug-controlled (A-1155463, venetoclax) switch (Bcl2 and BclXL–LD3) in HEK293T cells, sequence (P10415 whole entry): as the sequence (P10415 whole entry) above

CN(C)CC#Cc1ccc(OCCCc2sc(N3CCc4cccc(C(=O)Nc5nc6ccccc6s5)c4C3)nc2C(=O)O)c(F)c1 [A-1155463]
EC50 ([1]; A-1155463 dose response, SEAP, read-out: EC50 of the ON phase): 23 nM | SEAP (U/L) [1, 3]: 42.7182 U/L and 41.8919 U/L and 38.4512 U/L | SEAP (U/L) [1, 4]: 156.072 U/L and 146.503 U/L and 188.411 U/L | SEAP (U/L) [1, 5]: 331.126 U/L and 300.096 U/L and 322.732 U/L | SEAP (U/L) [1, 6]: 407.571 U/L and 388.702 U/L and 469.003 U/L | SEAP (U/L) ([1]; Representative, A-1155463 1 nM): 15.8426 U/L and 13.5232 U/L and 13.6294 U/L | SEAP (U/L) [1, 7]: 26.67 U/L and 26.9995 U/L and 28.8916 U/L | SEAP (U/L) [1, 8]: 53.4598 U/L and 53.7585 U/L and 50.2237 U/L | SEAP (U/L) [1, 9]: 77.0863 U/L and 99.712 U/L and 86.8586 U/L | SEAP (U/L) [1, 10]: 74.2135 U/L | IC50 ([2]; A-1155463-controlled OFF phase): 103 nM | decrease in the OFF phase ([2]; Fig 2e): close to tenfold | SEAP (U/L) ([2]; Independent repeat2, A-1155463 0.001 nM): 136.822 U/L and 169.801 U/L and 176.875 U/L | SEAP (U/L) ([2]; Independent repeat2, A-1155463 0.1 nM): 103.12 U/L and 204.542 U/L and 189.519 U/L | SEAP (U/L) ([2]; Independent repeat2, A-1155463 1 nM): 92.9798 U/L and 167.805 U/L and 150.91 U/L | SEAP (U/L) ([2]; Independent repeat2, A-1155463 10 nM): 77.7029 U/L and 130.847 U/L and 121.179 U/L | SEAP (U/L) ([2]; Independent repeat2, A-1155463 31.6 nM): 58.2163 U/L and 85.6507 U/L and 74.3645 U/L | SEAP (U/L) ([2]; Independent repeat2, A-1155463 100 nM): 37.6382 U/L and 39.3259 U/L and 34.7513 U/L | SEAP (U/L) ([2]; Independent repeat2, A-1155463 316 nM): 10.089 U/L and 12.1866 U/L and 9.268 U/L | SEAP (U/L) ([2]; Independent repeat2, A-1155463 1000 nM): 8.119 U/L and 8.577 U/L and 7.014 U/L | SEAP (U/L) ([2]; Independent repeat, A-1155463 0.001 nM): 544.306 U/L and 608.147 U/L and 640.878 U/L | SEAP (U/L) ([2]; Independent repeat, A-1155463 0.01 nM): 596.894 U/L and 605.557 U/L and 647.084 U/L | SEAP (U/L) ([2]; Independent repeat, A-1155463 0.1 nM): 460.121 U/L and 563.478 U/L and 550.17 U/L | SEAP (U/L) [2, 3]: 534.525 U/L and 587.537 U/L and 614.263 U/L | SEAP (U/L) [2, 4]: 528.461 U/L and 563.236 U/L and 515.428 U/L | SEAP (U/L) [2, 5]: 441.716 U/L and 544.633 U/L and 570.455 U/L | SEAP (U/L) [2, 6]: 308.86 U/L and 496.735 U/L and 439.283 U/L | SEAP (U/L) ([2]; Independent repeat, A-1155463 316 nM): 344.351 U/L and 390.049 U/L and 370.506 U/L | SEAP (U/L) ([2]; Representative, A-1155463 0.001 nM): 452.056 U/L and 640.781 U/L and 545.972 U/L | SEAP (U/L) ([2]; Representative, A-1155463 0.01 nM): 482.724 U/L and 651.317 U/L and 591.102 U/L | SEAP (U/L) ([2]; Representative, A-1155463 0.1 nM): 443.461 U/L and 562.309 U/L and 475.562 U/L | SEAP (U/L) ([2]; Representative, A-1155463 1 nM): 415.408 U/L and 516.033 U/L and 492.483 U/L | SEAP (U/L) [2, 7]: 401.724 U/L and 506.387 U/L and 481.044 U/L | SEAP (U/L) [2, 8]: 379.199 U/L and 421.639 U/L and 391.615 U/L | SEAP (U/L) [2, 9]: 206.108 U/L and 261.394 U/L and 267.779 U/L | SEAP (U/L) [2, 10]: 72.1001 U/L and 78.6193 U/L and 80.8054 U/L | SEAP (U/L) ([2]; Representative, A-1155463 1000 nM): 15.1572 U/L and 16.9337 U/L and 16.4073 U/L | Normalization of Response units (BclXL–LD3 interaction; A11 0.01): 102.002 | Response units (BclXL–LD3 interaction; A11 0.01): 136.071 | Normalization of Response units (BclXL–LD3 interaction; A11 0.1): 97.9313 | Response units (BclXL–LD3 interaction; A11 0.1): 130.64 | Normalization of Response units (BclXL–LD3 interaction; A11 1): 94.098 | Response units (BclXL–LD3 interaction; A11 1): 125.527 | Normalization of Response units (BclXL–LD3 interaction; A11 10): 84.7556 | Response units (BclXL–LD3 interaction; A11 10): 113.064 | Normalization of Response units (BclXL–LD3 interaction; A11 100): 61.7671 | Response units (BclXL–LD3 interaction; A11 100): 82.3973 | Normalization of Response units (BclXL–LD3 interaction; A11 1000): 27.7573 | Response units (BclXL–LD3 interaction; A11 1000): 37.0282 | Normalization of Response units (BclXL–LD3 interaction; A11 10000): 14.6141 | Response units (BclXL–LD3 interaction; A11 10000): 19.4952 | IC50 (BclXL–LD3 interaction; prevents BclXL from binding to LD3): 106 nM | Normalization of Response units (Bcl2–LD3 interaction; A11 0.01): 92.1843 | Response units (Bcl2–LD3 interaction; A11 0.01): 21.2577 | Normalization of Response units (Bcl2–LD3 interaction; A11 0.1): 80.8291 | Response units (Bcl2–LD3 interaction; A11 0.1): 18.6392 | Normalization of Response units (Bcl2–LD3 interaction; A11 1): 73.8912 | Response units (Bcl2–LD3 interaction; A11 1): 17.0393 | Normalization of Response units (Bcl2–LD3 interaction; A11 10): 65.6037 | Response units (Bcl2–LD3 interaction; A11 10): 15.1282 | Normalization of Response units (Bcl2–LD3 interaction; A11 100): 63.1974 | Response units (Bcl2–LD3 interaction; A11 100): 14.5733 | Normalization of Response units (Bcl2–LD3 interaction; A11 1000): 71.7979 | Response units (Bcl2–LD3 interaction; A11 1000): 16.5566 | Normalization of Response units (Bcl2–LD3 interaction; A11 10000): 76.7051 | Response units (Bcl2–LD3 interaction; A11 10000): 17.6882 | effect on the Bcl2–LD3 interaction (Bcl2–LD3 interaction; SPR drug competition): does not affect | binding to Bcl2 weaker than to BclXL (Bcl2): more than 7,000 fold
